In one experiment the target is human orexin 2 receptor (Homo sapiens (Human), UniProt O43614). Briefly: Human orexin 2 receptor radioligand binding ([3H]-EMPA competition). Particulars: HEK293 stably expressing human orexin 2 receptor; 2 nM [3H]-EMPA; averages of 2-20 runs; read-out: hOX2 Ki. In a few lines: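 Membranes-free whole HEK293 cells stably expressing human OX2 receptor incubated with [3H]-EMPA and compound (7 concentrations, 0.1 nM–10 μM, ≤0.1% DMSO) for 60 min at room temperature; nonspecific binding with 10 μM almorexant. Filtration and scintillation counting; one-site IC50 converted to Ki using predetermined Kd, triplicates averaged over 2-20 runs.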
Sequence of human orexin 2 receptor (O43614 whole entry): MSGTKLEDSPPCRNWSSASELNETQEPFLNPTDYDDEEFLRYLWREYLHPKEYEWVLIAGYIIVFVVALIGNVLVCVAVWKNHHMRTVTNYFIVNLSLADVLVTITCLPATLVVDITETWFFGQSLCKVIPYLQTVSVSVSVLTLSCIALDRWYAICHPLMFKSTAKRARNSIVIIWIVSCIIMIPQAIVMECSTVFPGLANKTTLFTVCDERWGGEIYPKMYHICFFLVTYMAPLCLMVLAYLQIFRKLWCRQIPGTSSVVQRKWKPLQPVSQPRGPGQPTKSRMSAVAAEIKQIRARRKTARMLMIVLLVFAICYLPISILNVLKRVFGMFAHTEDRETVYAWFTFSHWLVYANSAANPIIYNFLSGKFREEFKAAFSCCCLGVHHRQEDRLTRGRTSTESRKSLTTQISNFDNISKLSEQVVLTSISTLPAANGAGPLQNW

A further experiment has as its target rat orexin 1 receptor (Rattus norvegicus, UniProt P56718). Briefly: Rat orexin 1 receptor radioligand binding (competitive). As to conditions: HEK293 cells stably expressing rat orexin 1 receptor; 4 nM radioligand; averages of 2-20 runs; read-out: rOX1 Ki. In a few lines:
(§1)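 Competition binding used HEK293 cells expressing rat OX1 or CHO cells expressing human OX1, with 4 nM final [3H]-labelled thiazolyl-oxadiazolyl-pyrrolidinyl methanone radioligand in PBS. Compounds were tested at 7 concentrations (0.1 nM–10 μM) for 60 min at room temperature, then filtered; 10 μM almorexant defined nonspecific binding. Ki was derived from the one-site IC50 and the radioligand Kd.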

The target of a further experiment is human orexin 1 receptor (Homo sapiens (Human), UniProt O43613). Briefly: Human orexin 1 receptor radioligand binding (competitive). As to conditions: CHO cells stably expressing human orexin 1 receptor; 4 nM radioligand; averages of 2-20 runs; read-out: hOX1 Ki. In a few lines: as §1
Sequence of human orexin 1 receptor (O43613 whole entry): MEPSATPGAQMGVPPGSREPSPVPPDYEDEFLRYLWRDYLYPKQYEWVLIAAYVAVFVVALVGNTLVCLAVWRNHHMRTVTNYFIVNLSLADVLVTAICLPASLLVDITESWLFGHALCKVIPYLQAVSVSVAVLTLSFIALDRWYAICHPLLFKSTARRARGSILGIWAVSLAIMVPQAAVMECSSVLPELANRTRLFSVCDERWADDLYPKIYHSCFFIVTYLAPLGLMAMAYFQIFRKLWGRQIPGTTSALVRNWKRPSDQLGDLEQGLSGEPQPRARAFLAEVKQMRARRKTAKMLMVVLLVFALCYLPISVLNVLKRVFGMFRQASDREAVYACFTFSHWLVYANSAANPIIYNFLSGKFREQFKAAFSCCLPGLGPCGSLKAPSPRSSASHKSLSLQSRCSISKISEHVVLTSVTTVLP

Structures are written as SMILES. Where only a bound is given, the exact number is not on record here.

`C[C@@H]1[C@H]2C[C@@H](Oc3cnc(C(F)(F)F)cn3)[C@H](C2)N1C(=O)c1cccc(F)c1-n1nccn1` (relative stereo) [Example 52, (3-fluoro-2-(2H-1,2,3-triazol-2-yl)phenyl)((1S*,3R*,4R*,6R*)-3-methyl-6-((5-(trifluoromethyl)pyrazin-2-yl)oxy)-2-azabicyclo[2.2.1]heptan-2-yl)methanone]: the Ki (commonly the dissociation constant of the complex between target and ligand, obtained from inhibition or displacement) is 2550 nM on human orexin 2 receptor, 18 nM on rat orexin 1 receptor and 14 nM on human orexin 1 receptor.
For `Cc1cnc(-n2nccn2)c(C(=O)N2[C@H](C)[C@H]3C[C@@H](Oc4cnc(C(F)(F)F)cn4)[C@@H]2C3)c1` (relative stereo) [Example 50, (5-methyl-2-(2H-1,2,3-triazol-2-yl)pyridin-3-yl)((1S*,3R*,4R*,6R*)-3-methyl-6-((5-(trifluoromethyl)pyrazin-2-yl)oxy)-2-azabicyclo[2.2.1]heptan-2-yl)methanone], in that order: above 10000 nM, 23 nM and 30 nM.
Consider `Cc1ccc(-n2nccn2)c(C(=O)N2C(C)C3CC(Oc4cnc(C(F)(F)F)cn4)C2C3)n1` (racemic) [Example 42, (R/S)-(6-methyl-3-(2H-1,2,3-triazol-2-yl)pyridin-2-yl)(3-methyl-6-((5-(trifluoromethyl)pyrazin-2-yl)oxy)-2-azabicyclo[2.2.1]heptan-2-yl)methanone], for which the inhibition constant Ki at human orexin 2 receptor is above 10000 nM; at rat orexin 1 receptor it was 55 nM; on human orexin 1 receptor, 45 nM.
In the case of `O=C(c1c(F)cccc1-c1ncco1)N1C(CF)C2CC(Oc3ccc(C(F)(F)F)cn3)C1C2` (racemic) [Example 71], the figures for the Ki on human orexin 2 receptor, on rat orexin 1 receptor and on human orexin 1 receptor were 1500 nM, 32 nM and 29 nM, respectively.
For `C[C@@H]1[C@@H]2CC[C@@H]([C@H](Oc3ccc(C(F)(F)F)cn3)C2)N1C(=O)c1ncccc1-n1nccn1` [Example 159, [(1R,2R,4S,5R)-2-methyl-5-[[5-(trifluoromethyl)-2-pyridyl]oxy]-3-azabicyclo[2.2.2]octan-3-yl]-[3-(triazol-2-yl)-2-pyridyl]methanone], in that order: 2800 nM, 14 nM and 41 nM.
For `Cc1cnc(C(=O)N2[C@H](C)[C@@H]3CC[C@H]2[C@H](Oc2ccc(C(F)(F)F)cn2)C3)c(-n2nccn2)c1` [Example 160, [5-methyl-3-(triazol-2-yl)-2-pyridyl]-[(1R,2R,4S,5R)-2-methyl-5-[[5-(trifluoromethyl)-2-pyridyl]oxy]-3-azabicyclo[2.2.2]octan-3-yl]methanone], in that order: 872 nM, 8 nM and 11 nM.
For `C[C@@H]1[C@@H]2CC[C@@H]([C@H](Oc3ccc(C(F)(F)F)cn3)C2)N1C(=O)c1ccccc1-n1nccn1` [Example 157, [(1R,2R,4S,5R)-2-methyl-5-[[5-(trifluoromethyl)-2-pyridyl]oxy]-3-azabicyclo[2.2.2]octan-3-yl]-[2-(triazol-2-yl)phenyl]methanone], in that order: 6000 nM, 29 nM and 129 nM.
On to `CC1C2CC(Oc3ccc(C(F)(F)F)cn3)C(C2)N1C(=O)c1cccc(F)c1-c1ncccn1` (single isomer, unassigned) [Example 8, (R/S)-(3-fluoro-2-(pyrimidin-2-yl)phenyl)(3-methyl-6-((5-(trifluoromethyl)pyridin-2-yl)oxy)-2-azabicyclo[2.2.1]heptan-2-yl)methanone], for which the Ki was 1100 nM on human orexin 2 receptor, 11 nM on rat orexin 1 receptor and 16 nM on human orexin 1 receptor.
The like results for `Cc1ccc(-n2nccn2)c(C(=O)N2[C@H](C)[C@H]3C[C@@H](Oc4cnc(C(F)(F)F)cn4)[C@@H]2C3)n1` (relative stereo) [Example 46, (6-methyl-3-(2H-1,2,3-triazol-2-yl)pyridin-2-yl)((1S*,3R*,4R*,6R*)-3-methyl-6-((5-(trifluoromethyl)pyrazin-2-yl)oxy)-2-azabicyclo[2.2.1]heptan-2-yl)methanone] were, in that order, 4300 nM, 24 nM and 29 nM.

These data come from US9611262B2, “Substituted 2-azabicycles and their use as orexin receptor modulators” (JANSSEN PHARMACEUTICA NV, priority 2014, dated 2017).
